Test results from patent publication US9156877B2, “17-hydroxy-17-pentafluorethyl-estra-4,9(10)-dien-11-benzylidene derivatives, methods for the production thereof and use thereof for treating diseases” (Bayer Intellectual Property GmbH, priority 2009, dated 2015).
pIC50: −log10 of the molar value. In brackets after ≈: the same amount, converted by molar mass.

Key:
[1] = tested on: pregnant rats; test: Abortion test on female rats; format: in vivo, rat; conditions: d5-d7 p.c., autopsy d9 p.c.
Method: Abortion Test on Female Rats
The action of progesterone and of the progesterone receptor is a fundamental precondition for successful pregnancy or gestation in mammals. The progesterone-antagonistic action of the inventive compounds was tested on pregnant rats (6 rats per group) on days 5 to 7 post coitum under conventional housing and feeding conditions.
After successful mating, the pregnant animals (presence of sperm in the vaginal smear on day 1 of pregnancy=d1 p.c.) were randomized and divided into the treatment group and the control group. The animals then each received subcutaneously or orally 0.15; 0.5; 1.5 or 5 mg/kg of the test compound or 1.0 ml/kg of vehicle (benzyl benzoate/castor oil: 1+4 [v/v]) daily from day 5 to day 7 (d5-d7 p.c.).
Autopsy was conducted on day 9 (d9 p.c.). As a characteristic of progesterone receptor-antagonistic action, the uterus was examined for the presence of nidation sites. Complete absence, or else the presence of pathological, haemorrhagic or otherwise abnormal nidation sites, on day 9 (d9 p.c.) was considered as abortion.

[2] = Metabolic stability in rat liver microsomes; format: in vitro ADME; conditions: for Predicted clearance [l/h/kg] Rat: well-stirred model
Method: (§1) Determination of Metabolic Stability in Human and Rat Liver Microsomes
(§2) The incubations were conducted with 2.4 ml of HLM solution (protein content 0.5 mg/ml), 30 μl of the test compound (final concentration 1 μM) and 0.6 ml of the cofactor mixture (═NADPH-generating system composed of 3 IU glucose-6-phosphate dehydrogenase, 14.6 mg glucose-6-phosphate, 1.2 mg NADP) at 37° C. in 100 mM phosphate buffer at pH 7.4. Samples were taken at 6 time points (2-60 min) and precipitated with an equal volume of methanol, and the recovery of the test substances used in the supernatant was determined by LC-MS/MS analysis. The half-life of substance degradation determined therefrom was used to calculate what is called the intrinsic clearance of the substance in the liver microsome preparation. […] In addition, under the assumptions that (i) absorption of the test substance is 100%, and (ii) the first pass is completely reflected by liver microsome metabolism, a maximum oral bioavailability (Fmax) was calculated.

[3] = Solubility in aqueous medium at pH 7.4; format: physicochemical; conditions: for solubility (in words): aqueous medium under physiological conditions; for solubility: aqueous medium, pH 7.4, aqueous buffer
Excerpt: In addition, some compounds have an unusually good solubility, for this active ingredient class, in aqueous medium under physiological conditions (Table 2).

[4] = target: T1, human progesterone receptor A (Homo sapiens, UniProt P06401); test: Progesterone receptor-antagonistic action in stably transfected SK-N-MC cells with MMTV-LUC reporter (PR-A); format: cell-based; conditions: antagonistic potency against 0.1 nmol/l promegestone, 24 hours, luciferase
T1 construct: expressed in transfected cells; host or cells: SK-N-MC human neuroblastoma cells, stably transfected with pRChPR-A-neo and pMMTV-LUC
T1 sequence (P06401 1-769 isoform P06401-2): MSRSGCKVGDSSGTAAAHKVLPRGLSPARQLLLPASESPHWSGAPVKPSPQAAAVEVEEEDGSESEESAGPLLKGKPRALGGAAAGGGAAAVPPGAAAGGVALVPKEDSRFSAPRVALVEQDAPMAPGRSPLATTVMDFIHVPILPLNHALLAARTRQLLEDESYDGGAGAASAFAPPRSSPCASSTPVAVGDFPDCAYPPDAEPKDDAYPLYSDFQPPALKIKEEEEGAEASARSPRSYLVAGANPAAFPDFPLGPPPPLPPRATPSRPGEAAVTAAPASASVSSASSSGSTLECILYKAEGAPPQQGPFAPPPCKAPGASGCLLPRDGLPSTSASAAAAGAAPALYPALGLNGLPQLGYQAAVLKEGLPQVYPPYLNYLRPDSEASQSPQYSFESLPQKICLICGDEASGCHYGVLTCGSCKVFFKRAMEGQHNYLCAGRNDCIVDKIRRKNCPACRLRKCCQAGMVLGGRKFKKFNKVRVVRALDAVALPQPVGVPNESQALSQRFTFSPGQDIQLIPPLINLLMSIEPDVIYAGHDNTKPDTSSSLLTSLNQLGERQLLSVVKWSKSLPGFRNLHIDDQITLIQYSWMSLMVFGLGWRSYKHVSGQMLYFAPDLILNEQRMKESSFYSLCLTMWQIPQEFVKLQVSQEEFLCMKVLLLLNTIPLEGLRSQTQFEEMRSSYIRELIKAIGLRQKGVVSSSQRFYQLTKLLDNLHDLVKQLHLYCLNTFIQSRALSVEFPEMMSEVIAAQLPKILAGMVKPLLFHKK
In short: (§3)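 SK-N-MC neuroblastoma cells stably expressing human PR-A or PR-B plus MMTV-LUC reporter, treated 24 h with test compound (0.01 nmol/l–[…]). Antagonist mode used co-treatment with 0.1 nmol/l promegestone; luciferase in lysates read as RLU, expressed as % efficacy and IC50/EC50.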

[5] = target: T2, human progesterone receptor B (Homo sapiens, UniProt P06401); test: Progesterone receptor-antagonistic action in stably transfected SK-N-MC cells with MMTV-LUC reporter (PR-B); format: cell-based; conditions: antagonistic potency against 0.1 nmol/l promegestone, 24 hours, luciferase
T2 construct: expressed in transfected cells; host or cells: SK-N-MC human neuroblastoma cells, stably transfected with pRChPR-B-neo and pMMTV-LUC
T2 sequence (P06401 1-933): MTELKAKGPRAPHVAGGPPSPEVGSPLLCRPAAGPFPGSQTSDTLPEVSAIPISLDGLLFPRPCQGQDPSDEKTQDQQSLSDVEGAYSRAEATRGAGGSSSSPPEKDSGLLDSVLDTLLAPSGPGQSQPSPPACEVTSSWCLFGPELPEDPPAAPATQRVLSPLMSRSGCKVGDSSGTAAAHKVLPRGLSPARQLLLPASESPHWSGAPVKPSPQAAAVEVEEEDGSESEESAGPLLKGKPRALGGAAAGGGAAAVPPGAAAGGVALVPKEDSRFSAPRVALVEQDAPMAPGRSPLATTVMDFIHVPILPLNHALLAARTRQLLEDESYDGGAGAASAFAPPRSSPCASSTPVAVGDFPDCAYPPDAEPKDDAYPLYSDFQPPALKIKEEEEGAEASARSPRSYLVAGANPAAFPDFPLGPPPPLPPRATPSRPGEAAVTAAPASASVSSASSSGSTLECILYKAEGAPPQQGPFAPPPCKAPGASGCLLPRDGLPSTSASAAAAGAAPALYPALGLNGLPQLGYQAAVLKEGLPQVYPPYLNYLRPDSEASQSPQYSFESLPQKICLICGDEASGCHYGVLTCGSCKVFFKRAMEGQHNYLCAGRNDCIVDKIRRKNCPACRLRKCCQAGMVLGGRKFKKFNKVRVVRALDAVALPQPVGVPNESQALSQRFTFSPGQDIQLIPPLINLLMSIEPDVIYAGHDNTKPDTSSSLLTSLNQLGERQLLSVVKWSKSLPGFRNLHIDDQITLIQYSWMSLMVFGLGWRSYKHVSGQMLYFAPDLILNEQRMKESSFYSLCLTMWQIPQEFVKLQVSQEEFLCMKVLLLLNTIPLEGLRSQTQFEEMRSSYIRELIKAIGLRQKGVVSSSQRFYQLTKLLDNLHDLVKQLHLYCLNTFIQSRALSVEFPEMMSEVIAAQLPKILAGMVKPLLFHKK
In short: as §3

[6] = Metabolic stability in human liver microsomes; format: in vitro ADME; conditions: for Predicted clearance [l/h/kg] Human: 1 μM, well-stirred model
Method: as §1
Isolated human liver microsomes (HLM) were used to assess the metabolic stability of compounds of general formula I.
as §2

Compound	Predicted Fmax [%] (maximum oral bioavailability) Rat [2]	Predicted clearance [l/h/kg] Rat [2] [L/h/kg]	solubility (in words) [3]	solubility [3] [µg/mL]	pIC50 [4]	pIC50 [5]	Predicted Fmax [%] (maximum oral bioavailability) Human [6]	Predicted clearance [l/h/kg] Human [6] [L/h/kg]	Abortion rate [%] ([1]; daily dose 0.5 mg/kg p.o.)	Abortion rate [%] ([1]; daily dose 1.5 mg/kg p.o.)	Abortion rate [%] ([1]; daily dose 5.0 mg/kg p.o.)
C[C@]12C[C@H](c3ccc(/C=C/C=C/C(=O)O)cc3)C3=C4CCC(=O)C=C4CC[C@H]3[C@@H]1CC[C@@]2(O)C(F)(F)C(F)(F)F [Example 17, (2E,4E)-5-[4-((8S,11R,13S,14S,17S)-17-hydroxy-13-methyl-3-oxo-17-pentafluoroethyl-2,3,6,7,8,11,12,13,14,15,16,17-dodecahydro-1H-cyclopenta[a]phenanthren-11-yl)phenyl]penta-2,4-dienoic acid]	91	0.4	improved	> 188	10.00	9.15	33	0.89	0	16.7	100.0
C[C@]12C[C@H](c3cccc(/C=C/c4cccnc4)c3)C3=C4CCC(=O)C=C4CC[C@H]3[C@@H]1CC[C@@]2(O)C(F)(F)C(F)(F)F [Example 22, (8S,11R,13S,14S,17S)-17-hydroxy-13-methyl-17-pentafluoroethyl-11-[3-((E)-2-pyridin-3-ylvinyl)phenyl]-1,2,6,7,8,11,12,13,14,15,16,17-dodecahydrocyclopenta[a]phenanthren-3-one]	77	1.0		6 (≈ 10.5 µM)	9.52	9.00	41	0.8			
C[C@]12C[C@H](c3cccc(/C=C/c4ccncc4)c3)C3=C4CCC(=O)C=C4CC[C@H]3[C@@H]1CC[C@@]2(O)C(F)(F)C(F)(F)F [Example 23, (8S,11R,13S,14S,17S)-17-hydroxy-13-methyl-17-pentafluoroethyl-11-[3-((E)-2-pyridin-4-ylvinyl)phenyl]-1,2,6,7,8,11,12,13,14,15,16,17-dodecahydrocyclopenta[a]phenanthren-3-one]	95	0.2		8 (≈ 14 µM)	9.70	9.70	67	0.4			

More lines, main results first:

Predicted Fmax [%] (maximum oral bioavailability) Rat [2]	Predicted clearance [l/h/kg] Rat [2] [L/h/kg]	solubility (in words) [3]	solubility [3] [µg/mL]	pIC50 [4]	pIC50 [5]	Predicted Fmax [%] (maximum oral bioavailability) Human [6]	Predicted clearance [l/h/kg] Human [6] [L/h/kg]	Compound	Abortion rate [%] ([1]; daily dose 0.5 mg/kg p.o.)	Abortion rate [%] ([1]; daily dose 1.5 mg/kg p.o.)	Abortion rate [%] ([1]; daily dose 5.0 mg/kg p.o.)
79	0.9		10 (≈ 17.5 µM)	9.70	10.00	26	0.98	C[C@]12C[C@H](c3ccc(/C=C/CC(C#N)C#N)cc3)C3=C4CCC(=O)C=C4CCC3C1CC[C@@]2(O)C(F)(F)C(F)(F)F (stereo partly drawn) [Example 27, 2-{(E)-3-[4-((8S,11R,13S,14S,17S)-17-hydroxy-13-methyl-3-oxo-17-pentafluoroethyl-2,3,6,7,8,11,12,13,14,15,16,17-dodecahydro-1H-cyclopenta[a]phenanthren-11-yl)phenyl]allyl}malonitrile]			
97	0.1	improved	120 (≈ 196 µM)	10.22	10.00	74	0.35	C[C@]12C[C@H](c3ccc(/C=C/c4cccc(C(=O)O)c4)cc3)C3=C4CCC(=O)C=C4CC[C@H]3[C@@H]1CC[C@@]2(O)C(F)(F)C(F)(F)F [Example 28, 3-{(E)-2-[4-((8S,11R,13S,14S,17S)-17-hydroxy-13-methyl-3-oxo-17-pentafluoroethyl-2,3,6,7,8,11,12,13,14,15,16,17-dodecahydro-1H-cyclopenta[a]phenanthren-11-yl)phenyl]vinyl}benzoic acid]			
100	0.0	improved	102 (≈ 166 µM)	10.10	10.05	94	0.08	C[C@]12C[C@H](c3ccc(/C=C/c4ccc(C(=O)O)cc4)cc3)C3=C4CCC(=O)C=C4CC[C@H]3[C@@H]1CC[C@@]2(O)C(F)(F)C(F)(F)F [Example 29, 4-{(E)-2-[4-((8S,11R,13S,14S,17S)-17-hydroxy-13-methyl-3-oxo-17-pentafluoroethyl-2,3,6,7,8,11,12,13,14,15,16,17-dodecahydro-1H-cyclopenta[a]phenanthren-11-yl)phenyl]vinyl}benzoic acid]	0	16.7	100.0
82	0.8		5 (≈ 9.3 µM)	10.10	10.10	72	0.36	CCO/N=C/c1ccc([C@H]2C[C@@]3(C)[C@@H](CC[C@@]3(O)C(F)(F)C(F)(F)F)[C@@H]3CCC4=CC(=O)CCC4=C32)cc1 [Example 36, 4-((8S,11R,13S,14S,17S)-17-hydroxy-13-methyl-3-oxo-17-pentafluoroethyl-2,3,6,7,8,11,12,13,14,15,16,17-dodecahydro-1H-cyclopenta[a]phenanthren-11-yl)benzaldehyde O-ethyl oxime]			
